# Assay results as given in PubChem BioAssay (NCI).
#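 All cell lines were grown in 96-well plates and treated with compound for 48 hours. At the GI50, growth is halved. At the TGI there is no net growth.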
# Columns and labels:
# Assay in all cases: NCI tumour cell line growth inhibition, 48 h
# A498 renal = system: A498 renal
# ACHN renal = system: ACHN renal
# KM12 colon = system: KM12 colon
# M14 melanoma = system: M14 melanoma
# OVCAR-5 ovarian = system: OVCAR-5 ovarian
# RPMI-8226 leukemia = system: RPMI-8226 leukemia
# RXF 393 renal = system: RXF 393 renal
# SF-539 CNS = system: SF-539 CNS
# SK-MEL-5 melanoma = system: SK-MEL-5 melanoma
# HL-60(TB) leukemia = system: HL-60(TB) leukemia
SMILES,GI50 (A498 renal),TGI (A498 renal),GI50 (ACHN renal),TGI (ACHN renal),GI50 (KM12 colon),TGI (KM12 colon),GI50 (M14 melanoma),TGI (M14 melanoma),GI50 (OVCAR-5 ovarian),TGI (OVCAR-5 ovarian),GI50 (RPMI-8226 leukemia),TGI (RPMI-8226 leukemia),GI50 (RXF 393 renal),TGI (RXF 393 renal),GI50 (SF-539 CNS),TGI (SF-539 CNS),GI50 (SK-MEL-5 melanoma),TGI (SK-MEL-5 melanoma),TGI (HL-60(TB) leukemia),GI50 (HL-60(TB) leukemia)
CN1CCN(CCCOc2cccc3nc(Nc4cc(Cl)cc(Cl)c4)ccc23)CC1,1.78 µM,3.51 µM,1.66 µM,3.09 µM,1.72 µM,3.29 µM,1.73 µM,3.28 µM,1.79 µM,3.43 µM,2.17 µM,4.93 µM,1.67 µM,3.22 µM,1.57 µM,3.03 µM,1.93 µM,3.75 µM,,
Nc1n[n+]([O-])c2cc([N+](=O)[O-])ccc2[n+]1[O-],,36.6 µM,,14.4 µM,,,,20.4 µM,,42.2 µM,,> 100 µM,,,,16 µM,,20.6 µM,7.47 µM,
CC(C)N(C(=O)C12C3C4C1C1C2C3C41C(=O)C(C)(C)C)C(C)C (stereo not given),,> 100 µM,,> 100 µM,,> 100 µM,,> 100 µM,,> 100 µM,,> 100 µM,,,,> 100 µM,,> 100 µM,63.7 µM,
C[C@@H](C1CC[C@H]2[C@@H]3[C@@H]4O[C@@H]4[C@@]4(O)CC=CC(=O)[C@]4(C)[C@H]3C[C@H](O)[C@]12C)[C@H]1C[C@]2(C)O[C@]2(C)C(=O)O1 (stereo not given in full),,> 100 µM,,> 100 µM,,> 100 µM,,> 100 µM,,> 100 µM,,> 100 µM,,,,> 100 µM,,> 100 µM,> 100 µM,
C[C@@H](O)[C@@H](C)Oc1nc(Nc2ccc(S(=N)(=O)C3CC3)cc2)ncc1C(F)(F)F (stereo not given in full),0.021 µM,0.0461 µM,0.0261 µM,> 100 µM,0.0242 µM,1.16 µM,0.0349 µM,0.316 µM,0.033 µM,> 70.6 µM,0.0226 µM,0.0586 µM,,,0.0162 µM,0.0384 µM,0.0266 µM,0.108 µM,0.0544 µM,0.0183 µM
N#C/C(=C\c1ccc(O)c(O)c1)C(=O)NCc1ccc(C(F)(F)F)cc1,16 µM,36.1 µM,6.14 µM,23.9 µM,6.08 µM,26.9 µM,,,14.2 µM,44.7 µM,3.21 µM,,12.2 µM,41 µM,5.5 µM,17.8 µM,8.09 µM,24.4 µM,> 66.5 µM,11.6 µM
Cc1cc2c(cc1Cl)SC(N(c1ccccc1Cl)S(=O)(=O)c1ccc(Br)s1)=NS2(=O)=O,11.3 µM,42 µM,22.4 µM,84.7 µM,25.8 µM,83.4 µM,18.5 µM,47.3 µM,60 µM,> 100 µM,24.8 µM,82.3 µM,,,9.92 µM,23.7 µM,13.8 µM,26.7 µM,41.9 µM,16.4 µM
COC(=O)C(C(=O)C(=O)Nc1ccc(C)cc1)c1nc2ccc([N+](=O)[O-])cc2[nH]c1=O (stereo not given),,> 100 µM,,> 100 µM,,> 100 µM,,> 100 µM,,> 100 µM,,,,> 100 µM,,> 100 µM,,> 100 µM,> 100 µM,
CC(C)C[C@H](CC(=O)O)C(=O)N[C@@H](Cc1c[nH]c2ccccc12)C(=O)N[C@@H](C)c1ccccc1,> 25 µM,> 25 µM,> 25 µM,> 25 µM,> 25 µM,> 25 µM,> 25 µM,> 25 µM,> 25 µM,> 25 µM,,,> 25 µM,> 25 µM,> 25 µM,> 25 µM,> 25 µM,> 25 µM,,
CC/C=C\C[C@H]1C/C=C2/C(=O)C=C[C@H]2C/C=C\CCCC(=O)O1,7.21 µM,14.4 µM,1.39 µM,3.97 µM,,,1.69 µM,8.34 µM,3.99 µM,16.8 µM,1.59 µM,4.82 µM,1.91 µM,8.01 µM,2.07 µM,8.16 µM,1.74 µM,7.27 µM,12 µM,1.74 µM
COc1ccc(C(c2ccccc2C(=O)O)c2ccc(OC)c3ccccc23)c2ccccc12,,39 µM,,23.5 µM,,23.1 µM,,33 µM,,31.4 µM,,20.8 µM,,,,24.4 µM,,34.2 µM,38.1 µM,
COc1ccc2[nH]c(Cl)c(/C=C3/C(=O)Nc4ccccc43)c2c1,,,0.786 µM,5.85 µM,0.563 µM,3.09 µM,0.254 µM,1.23 µM,0.554 µM,3.12 µM,0.213 µM,0.591 µM,0.381 µM,6.92 µM,0.483 µM,0.731 µM,0.0902 µM,0.722 µM,2.84 µM,0.449 µM
NC(N)=NN=c1c(=O)c2ccccc2c1=O,,,6.46 µM,19.2 µM,3.34 µM,10.7 µM,2 µM,3.46 µM,17.5 µM,32.5 µM,5.7 µM,29.6 µM,13.1 µM,25.9 µM,5.67 µM,18 µM,2.93 µM,11.7 µM,48.6 µM,21.5 µM
O=S(=O)(C1=CC(S(=O)(=O)c2ccccc2)COC1)c1ccccc1 (stereo not given),,,,> 100 µM,,> 100 µM,,> 100 µM,,,,> 100 µM,,> 100 µM,,> 100 µM,,,> 100 µM,
Nc1cn(C2OC(CC(c3ccccc3)(c3ccccc3)c3ccccc3)C(O)C2O)c(=O)[nH]c1=O (stereo not given),,95.5 µM,,> 100 µM,,> 100 µM,,48.6 µM,,> 100 µM,,42 µM,,21.4 µM,,,,37.4 µM,36.9 µM,
C/C=C1/CN2CCC34C(=C(C(=O)OC)C1CC23)Nc1ccc(O)cc14 (stereo not given),,> 100 µM,,> 100 µM,,> 100 µM,,> 100 µM,,> 100 µM,,> 100 µM,,,,> 100 µM,,> 100 µM,> 100 µM,
